Measured values taken from US6340686B1, “Thienopyrimidine compounds, their production and use” (Takeda Chemical Industries, Ltd., priority 1999, dated 2002).
Blank lines part the entries; values can stand above or below the compound they belong to.

Assays:
[1] = biological target: T1, GnRH receptors (rat pituitary anterior lobe membrane fraction) (Rattus norvegicus, UniProt P30969); assay: 125I-leuprorelin binding inhibition, rat pituitary anterior lobe membrane fraction
T1 construct: Anterior lobes of the pituitary glands were isolated from forty Wistar rats; from tissue; host or cells: anterior lobes of pituitary glands of male Wistar rats
T1 sequence (P30969 1-327): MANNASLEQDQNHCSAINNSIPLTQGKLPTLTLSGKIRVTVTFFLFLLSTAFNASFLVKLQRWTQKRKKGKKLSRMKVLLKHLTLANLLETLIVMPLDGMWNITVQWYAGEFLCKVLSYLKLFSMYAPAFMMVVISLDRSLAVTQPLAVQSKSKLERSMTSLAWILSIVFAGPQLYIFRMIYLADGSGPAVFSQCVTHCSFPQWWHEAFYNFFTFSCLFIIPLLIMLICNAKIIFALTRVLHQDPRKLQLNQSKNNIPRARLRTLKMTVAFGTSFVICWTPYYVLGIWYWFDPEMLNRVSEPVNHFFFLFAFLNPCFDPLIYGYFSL
Procedure: (1) Preparation of ^125I-leuprorelin To a tube containing 10 μl of a 3×10^−4M aqueous solution of leuprorelin and 10 μl of 0.01 mg/ml lactoperoxidase, 10 μl (37MBq) of a solution of Na^125I was added. After stirring, 10 μl of 0.001% H2O2 was added, and a reaction was carried out at room temperature for 20 minutes. By adding 700 μl of a 0.05% TFA (trifluoroacetic acid) solution, the reaction was stopped, followed by purification by reversed-phase HPLC. The HPLC conditions used are shown below. ^125I-leuprorelin was eluted at a retention time of 26 to 27 minutes. […] To determine maximum binding quantity, a reaction mixture of 2 μl of 60% DMSO and 10 μl of 38 nM ^125I-leuprorelin was prepared. […] After this filtration, the radioactivity of ^125I-leuprorelin remaining on the filter paper was measured with a γ-counter. The expression (TB-SB)/(TB-NSB)×100 (where SB=radioactivity with the compound added, TB=maximum bound radioactivity, NSB=nonspecifically bound radioactivity) was calculated to find the binding inhibition rate (%) of each test compound. […]

human GnRH receptor = biological target: T2, human GnRH receptor (Homo sapiens, UniProt P30968); assay: 125I-leuprorelin binding inhibition, CHO cell membrane fraction containing human GnRH receptor; settings: 25° C. for 60 minutes, Hill plot
T2 construct: expressed in transfected cells; host or cells: CHO (Chinese hamster ovary) cells
T2 sequence (P30968 1-328): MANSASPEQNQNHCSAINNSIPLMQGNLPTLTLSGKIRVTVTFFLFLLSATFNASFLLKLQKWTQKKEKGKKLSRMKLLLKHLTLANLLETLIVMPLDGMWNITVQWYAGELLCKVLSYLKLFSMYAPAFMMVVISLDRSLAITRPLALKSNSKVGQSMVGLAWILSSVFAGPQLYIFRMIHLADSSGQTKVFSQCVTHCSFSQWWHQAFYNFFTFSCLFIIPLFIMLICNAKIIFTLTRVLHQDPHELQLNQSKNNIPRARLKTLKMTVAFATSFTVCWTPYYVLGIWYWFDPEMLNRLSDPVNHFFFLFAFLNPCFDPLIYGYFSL
Procedure: To the cell pellet, 10 ml of a cell homogenate buffer (10 mM NaHCO3, 5 mM EDTA, pH 7.5) was added, followed by homogenization using the Polytron homogenizer. […] This precipitate was suspended in 2 ml of an assay buffer and centrifuged at 100,000×g for 1 hour. The membrane fraction recovered as a precipitate was again suspended in 20 ml of the assay buffer, dispensed, and stored at −80° C. before use upon thawing. […] To determine maximum binding quantity, a reaction mixture of 2 μl of 60% DMSO and 10 μl of 38 nM ^125I-leuprorelin was prepared. […] Where the membrane fraction of the CHO with human GnRH receptors expressed was used, the reaction was carried out at 25° C. for 60 minutes. After each reaction, the reaction mixture was aspirated and filtered through a polyethyleneimine-treated Whatman glass filter (GF-F). After this filtration, the radioactivity of ^125I-leuprorelin remaining on the filter paper was measured with a γ-counter. The expression (TB-SB)/(TB-NSB)×100 (where SB=radioactivity with the compound added, TB=maximum bound radioactivity, NSB=nonspecifically bound radioactivity) was calculated to find the binding inhibition rate (%) of each test compound. Furthermore, the inhibition rate was determined by varying the concentration of the test substance and the 50% inhibitory concentration (IC50 value) of the compound was calculated from Hill plot.

plasma LH = assay: Suppression of plasma LH in castrated monkeys; format: in vivo, cynomolgus monkeys (Macaca fascicularis); settings: castrated male cynomolgus monkeys
Procedure: The Example compound No. 2 was orally administered to castrated male cynomolgus monkeys (Macaca fascicularis), and plasma LH was quantified. The male cynomolgus monkeys, used at 4 years 9 months to 6 years 3 months of age at time of experimentation, had been castrated more than 3 months prior to the examination. Test animals [n=3] were given 30 mg/kg (3 ml/kg) of the compound suspended in 0.5% methyl cellulose at a final concentration of 1% by oral administration, and control animals [n=2] were given 3 ml/kg of the 0.5% methyl cellulose dispersant alone by oral administration. At 24 hours and immediately before administration and at 2, 4, 6, 8, 24, and 48 hours after administration, blood was collected for heparinized plasma samples via the femoral vein and immediately stored under freezing conditions.
Plasma LH concentrations were determined by a bioassay using mouse testicular cells. The testicular cells were collected from male BALB/c mice (8 to 9 weeks of age) and washed three times with 1 ml of Dulbecco's modified Eagle medium. (DMEM-H) containing 20 mM HEPES and 0.2% BSA per testis. After incubation at 37° C. for 1 hour, the cells were passed through a nylon mesh filter (70 μm) and dispensed to test tubes at 8×10^5 cells/tube. After the cells were washed twice with 0.4 ml of DMEM-H, 0.4 ml of a DMEM-H solution containing either equine LH (Sigma Company), as the standard LH, or monkey plasma, previously diluted up to 300 fold, as the test sample, was added, followed by a reaction at 37° C. for 2 hours. The testosterone concentration in the culture supernatant was determined by a radioimmunoassay (CIS Diagnostics Company), and the LH concentration in the test monkey plasma was calculated from the standard curve for the standard equine LH.
The results are given together in FIG. 1. […]

IC50 ([1]; 125I-leuprorelin binding, calculated from Hill plot): 0.5 µM
inhibition at 1 µM ([1]; read-out: binding inhibition rate (%) Rat (1 μM), 1 μM compound, 125I-leuprorelin, 4° C. for 90 minutes): 64%
IC50 (human GnRH receptor): 0.0002 µM
Compound: CONC(=O)Nc1ccc(-c2sc3c(c2CN2Cc4ccccc4C2)c(=O)n(-c2ccccc2)c(=O)n3Cc2c(F)cccc2F)cc1 [Ex. Compd. No. 4-2]

Compound: CONC(=O)Nc1ccc(-c2sc3c(c2CN(C)Cc2ccccc2)c(=O)n(-c2ccccc2)c(=O)n3Cc2c(F)cccc2F)cc1.Cl [Ex. Compd. No. 2, 5-(N-Benzyl-N-methylaminomethyl)-1-(2,6-difluorobenzyl)-6-[4-(3-methoxyureido)phenyl]-3-phenylthieno[2,3-d]pyrimidine-2,4(1H,3H)-dione hydrochloride]
plasma LH concentration, percentage of the baseline LH concentration immediately before administration (plasma LH; 30 mg/kg oral in 0.5% methyl cellulose, by 24 hours after administration): ≤ 20%
plasma LH concentration at 48 hours after administration (plasma LH; 30 mg/kg oral, 48 hours after administration): re-elevation of the plasma LH concentration was noted
effect on blood LH concentration (plasma LH; administered orally, 30 mg/kg): significant depressive effect on blood LH concentration

melting point: 164 to 165 °C
Compound: CN(Cc1ccccc1)Cc1c(-c2ccc(NC(=O)NO)cc2)sc2c1c(=O)n(-c1ccccc1)c(=O)n2Cc1c(F)cccc1F [Example 5, 5-(N-Benzyl-N-methylaminomethyl)-1-(2,6-difluorobenzyl)-6-[4-(3-hydroxyureido)phenyl]-3-phenylthieno[2,3-d]pyrimidine-2,4(1H,3H)-dione]

melting point: 220 to 222 °C
Compound: CN(Cc1ccccc1)Cc1c(-c2ccc(NC(=O)NCCO)cc2)sc2c1c(=O)n(-c1ccccc1)c(=O)n2Cc1c(F)cccc1F [Example 7, 5-(N-Benzyl-N-methylaminomethyl)-1-(2,6-difluorobenzyl)-6-[4-[3-(2-hydroxyethyl)ureido]phenyl]-3-phenylthieno[2,3-d]pyrimidine-2,4(1H,3H)-dione]
